Test results published in US20250177525A1, “POLYDONOR CD4+ T CELLS EXPRESSING IL-10 AND USES THEREOF” (TR1X, INC., priority 2021, published 2025).

System: NLPR3 inflammasome
Assay: IL-1β production by LPS activated monocytes
Format: cell-based, human
Conditions: anti-IL-10R antibody
Procedure: CD14^+ monocytes were isolated from PBMC using a pan monocyte isolation kit (Miltenyi Biotec, Bergisch Gladbach, Germany) and plated in 96 flat microtiter wells at 2×10^5/200 μL per well and cultured in the presence of LPS. The cells were cultured further in the presence of Z-YVADfmk (20 microMol), MMC950 (10 microMol), IL-10 (10 ng/mL) or various concentrations of single- or pooled donor CD4^IL-10 cell supernatants as summarized in Table 1.
The supernatants were obtained from single- or pooled donor CD4^IL-10 cells activated for 72 hours with a combination of CD3 and CD28 antibodies as described previously. (Andolfi et al. 2012, Mol. Therapy Vol. 20, 1778-1790, Locafaro et al. Mol Ther 2017, 25, 2254) In some cases (FIGS. 19C and 19D), the monocytes were incubated with LPS in combination with the NLPR3 inflammasome activator nigericin (“NIG”) which was added during the last 30 minutes of the LPS activation.
The NLPR3 inflammasome was activated by LPS, resulting in the production of mature caspase 1 and the biologically active forms of IL-1β and IL-18.

Compound	effect of anti-IL-10 receptor antibody on the inhibitory effects
CC(C)(O)c1coc(S(=O)(=O)NC(=O)Nc2c3c(cc4c2CCC4)CCC3)c1 [MCC950]	no effect
Z-YVADfmk [Z-VADfmk]	no effect
